Compound in test [1]: CNCc1ccc(-c2[nH]c3cc(F)cc4c3c2CCNC4=O)cc1
Kind of test: surviving fraction relative to DMSO-only wells; higher = less growth inhibition. The settings on record: exposure time: 5 days. Put shortly: (§1)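 A line counted only if its three screens reached replicate Pearson r >0.7 and median Z' >0.3. Tumour cells in log phase were seeded at 250–500 per well in 384-well plates and, after 24 hours, kept in continuous contact with inhibitors at 0.5, 1, 5, 10, 50, 100, 500 and 1000 nM for five days. Surviving fraction was taken from CellTiter-Glo luminescence relative to the median of DMSO-only wells.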

Compound in test [2]: C[C@@H](Oc1cc(-c2cnn(C3CCNCC3)c2)cnc1N)c1c(Cl)ccc(F)c1Cl
The description is as above. Conditions: exposure time: 5 days. Put shortly: as §1

± gives the standard deviation of the averaged measurements.

With MHM BONE, the surviving fraction in test [1] (0.5 nM) came to 1.02 ± 0.025; in test [1] (1 nM), 1.02 ± 0.035; in test [1] (5 nM) it was 1.05 ± 0.015; in test [1] (10 nM), 1.06 ± 0.051; in test [1] (50 nM) it was 1.06 ± 0.039; in test [1] (100 nM), 1.074 ± 0.0062. Also, the surviving fraction was found to be 1.09 ± 0.022 in test [1] (500 nM); 1.07 ± 0.041 in test [1] (1000 nM); 0.982 ± 0.041 in test [2] (0.5 nM); 0.991 ± 0.02 in test [2] (1 nM); 0.991 ± 0.023 in test [2] (5 nM); 0.993 ± 0.023 in test [2] (10 nM). For the same test system, the figures for the surviving fraction in test [2] (100 nM), in test [2] (500 nM) and in test [2] (1000 nM) were 0.977 ± 0.011, 0.905 ± 0.018 and 0.817 ± 0.012, respectively.
For the test system SCC36 HEADNECK, the surviving fraction in test [1] (0.5 nM) stood at 1.02 ± 0.15; in test [1] (1 nM), 0.999 ± 0.1; in test [1] (5 nM), 1.11 ± 0.024; in test [1] (10 nM) it was 1.07 ± 0.1; in test [1] (50 nM), 0.763 ± 0.057; in test [1] (100 nM), 0.728 ± 0.018. Further, the surviving fraction in test [1] (500 nM) is 0.629 ± 0.019; in test [1] (1000 nM) it was 0.592 ± 0.069; in test [2] (0.5 nM) it was 0.784 ± 0.039; in test [2] (1 nM), 0.784 ± 0.07; in test [2] (5 nM) it was 0.742 ± 0.077; in test [2] (10 nM), 0.742 ± 0.071. Further, the surviving fraction in test [2] (50 nM) was determined as 0.913 ± 0.021; in test [2] (500 nM) it was 0.403 ± 0.022; in test [2] (1000 nM), 0.255 ± 0.011.
Take MDAMB453 BREAST: the surviving fraction in test [1] (0.5 nM) was 0.991 ± 0.071; in test [1] (1 nM), 1.01 ± 0.096; in test [1] (5 nM), 1.05 ± 0.049; in test [1] (10 nM), 0.979 ± 0.093; in test [1] (50 nM), 0.919 ± 0.062; in test [1] (100 nM) it was 0.957 ± 0.06. The surviving fraction came out at 0.892 ± 0.022 in test [1] (500 nM); 0.696 ± 0.017 in test [1] (1000 nM); 0.994 ± 0.054 in test [2] (0.5 nM); 1.02 ± 0.074 in test [2] (5 nM); 1.03 ± 0.026 in test [2] (10 nM); 1.06 ± 0.014 in test [2] (50 nM). Besides, the surviving fraction in test [2] (100 nM) was 1.06 ± 0.05; in test [2] (500 nM) it was 0.771 ± 0.029; in test [2] (1000 nM), 0.637 ± 0.013.
HCC1806 BREAST: the surviving fraction in test [1] (0.5 nM) is 1.05 ± 0.074; in test [1] (1 nM) it was 0.879 ± 0.021; in test [1] (5 nM) it was 1.02 ± 0.024; in test [1] (10 nM) it was 1.07 ± 0.094; in test [1] (50 nM), 0.77 ± 0.076; in test [1] (100 nM), 0.74 ± 0.09. Also, the surviving fraction came out at 0.601 ± 0.046 in test [1] (500 nM); 0.521 ± 0.026 in test [1] (1000 nM); 0.818 ± 0.034 in test [2] (0.5 nM); 0.74 ± 0.067 in test [2] (1 nM); 0.87 ± 0.029 in test [2] (5 nM); 1.06 ± 0.11 in test [2] (50 nM). Further, the surviving fraction worked out at 0.862 ± 0.018 in test [2] (100 nM), 0.502 ± 0.022 in test [2] (500 nM) and 0.273 ± 0.0078 in test [2] (1000 nM).
For HOSMNG BONE, the surviving fraction was 0.936 ± 0.055 in test [1] (0.5 nM); 0.988 ± 0.083 in test [1] (1 nM); 0.94 ± 0.14 in test [1] (5 nM); 0.857 ± 0.03 in test [1] (10 nM); 0.838 ± 0.032 in test [1] (50 nM); 0.885 ± 0.089 in test [1] (100 nM). Besides, the surviving fraction in test [1] (500 nM) is 0.929 ± 0.11; in test [1] (1000 nM) it was 0.954 ± 0.045; in test [2] (0.5 nM) it was 0.985 ± 0.018; in test [2] (1 nM) it was 1 ± 0.02; in test [2] (5 nM), 0.949 ± 0.016; in test [2] (10 nM) it was 0.949 ± 0.039. For the same test system, the surviving fraction was determined as 0.637 ± 0.066 in test [2] (50 nM), 0.518 ± 0.016 in test [2] (100 nM), 0.262 ± 0.013 in test [2] (500 nM) and 0.17 ± 0.0051 in test [2] (1000 nM).
On to SG32 HEADNECK, for which the surviving fraction in test [1] (0.5 nM) was determined as 0.993 ± 0.27; in test [1] (1 nM), 1.01 ± 0.2; in test [1] (5 nM) it was 0.984 ± 0.17; in test [1] (10 nM), 1.02 ± 0.035; in test [1] (50 nM), 0.704 ± 0.061; in test [1] (100 nM) it was 0.716 ± 0.14. For the same test system, the surviving fraction came out at 0.682 ± 0.075 in test [1] (500 nM); 0.566 ± 0.17 in test [1] (1000 nM); 0.809 ± 0.17 in test [2] (0.5 nM); 0.907 ± 0.093 in test [2] (1 nM); 0.931 ± 0.15 in test [2] (5 nM); 0.799 ± 0.11 in test [2] (10 nM). Also, the surviving fraction amounted to 0.955 ± 0.15 in test [2] (50 nM), 0.475 ± 0.06 in test [2] (500 nM) and 0.359 ± 0.092 in test [2] (1000 nM).
As for MFM223 BREAST, the surviving fraction in test [1] (0.5 nM) was found to be 1.04 ± 0.11; in test [1] (1 nM) it was 1.17 ± 0.072; in test [1] (5 nM) it was 1.07 ± 0.069; in test [1] (10 nM), 1.13 ± 0.12; in test [1] (50 nM), 0.775 ± 0.053; in test [1] (100 nM), 0.699 ± 0.011. The surviving fraction in test [1] (500 nM) stood at 0.755 ± 0.031; in test [1] (1000 nM), 0.705 ± 0.079; in test [2] (0.5 nM) it was 0.7 ± 0.052; in test [2] (1 nM), 0.747 ± 0.044; in test [2] (10 nM) it was 0.751 ± 0.042; in test [2] (50 nM), 1.05 ± 0.14. Also, the figures for the surviving fraction in test [2] (100 nM), in test [2] (500 nM) and in test [2] (1000 nM) were 0.934 ± 0.019, 0.985 ± 0.064 and 0.836 ± 0.096, respectively.
Take MDAMB134 BREAST: the surviving fraction was 0.811 ± 0.061 in test [1] (0.5 nM); 0.818 ± 0.12 in test [1] (1 nM); 0.814 ± 0.051 in test [1] (5 nM); 0.8795 ± 0.0078 in test [1] (10 nM); 0.703 ± 0.19 in test [1] (50 nM); 0.764 ± 0.13 in test [1] (100 nM). The surviving fraction was determined as 0.824 ± 0.21 in test [1] (500 nM); 0.986 ± 0.4 in test [1] (1000 nM); 0.712 ± 0.097 in test [2] (0.5 nM); 0.718 ± 0.13 in test [2] (1 nM); 0.624 ± 0.11 in test [2] (5 nM); 0.667 ± 0.0014 in test [2] (10 nM). Besides, the surviving fraction in test [2] (50 nM) stood at 0.854 ± 0.029; in test [2] (100 nM), 0.767 ± 0.038; in test [2] (500 nM), 0.758 ± 0.097; in test [2] (1000 nM), 0.709 ± 0.1.
For the test system NCIH441 LUNG, the surviving fraction in test [1] (0.5 nM) was 1.06 ± 0.08; in test [1] (1 nM), 0.973 ± 0.12; in test [1] (5 nM), 1.09 ± 0.064; in test [1] (10 nM), 1.01 ± 0.06; in test [1] (50 nM), 0.992 ± 0.051; in test [1] (100 nM), 0.809 ± 0.022. The surviving fraction in test [1] (500 nM) was determined as 0.996 ± 0.022; in test [1] (1000 nM) it was 0.923 ± 0.1; in test [2] (0.5 nM) it was 0.999 ± 0.039; in test [2] (1 nM), 0.982 ± 0.03; in test [2] (5 nM), 0.956 ± 0.045; in test [2] (10 nM), 0.998 ± 0.068. For the same test system, the surviving fraction is 0.996 ± 0.046 in test [2] (50 nM), 0.885 ± 0.026 in test [2] (100 nM), 0.885 ± 0.11 in test [2] (500 nM) and 0.652 ± 0.079 in test [2] (1000 nM).

The values are drawn from the supplement of paper PMC6045584.
